Experimental data from US6962911B2, “Pyrrolopyrimidinone derivatives, process of preparation and use” (SK Chemicals Co., Ltd., priority 2000, dated 2005).
Counter-ions that a name gives are not always drawn. Like-named read-outs stand apart in the source and are kept apart here.

Assays:
cGMP PDE V = cGMP PDE V (Homo sapiens, UniProt O76074); test: cyclic nucleotide PDE V activity, PDE SPA assay kit, inhibition study; type: biochemical
Protocol: The cyclic nucleotide PDE V activity was determined using PDE SPA assay kit (Amersham Pharmacia biotech, UK). Each reaction mixture (100 μL total volume) consisted of the column elute containing PDE V (10 μL), [^3H]-cGMP (5 μCi/mL), bovine serum albumin (0.5 mg/mL), and MgCl2 (5 mM) in Tris-HCl buffer (15 mM, pH 7.5). The reactions were initiated by the addition of PDE V and the samples were incubated at 30° C. for 30 min, after which the reaction was stopped by the addition of 50 μL of SPA beads. The reaction tube was then settled for 20 min and was counted on the scintillation counter (Tri-carb 1500, Packard, USA). For the inhibition study of PDE V activity, the sildenafil and test compounds were dissolved in dimethyl sulfoxide (DMSO) and was diluted with distilled water. The final concentration of DMSO was less than 0.2% (v/v).
The following table illustrate the in vitro activities for a range of the compounds of the invention as inhibitors of cGMP PDE V.

[1] = in vitro inhibition of cGMP PDE V, [3H]-cGMP, 30° C., 30 min, read-out: IC50

Row | SMILES | IC50 (cGMP PDE V; [1]) [pM] | melting point | IC50 (cGMP PDE V) [pM]
1 | CCCc1cn(C)c2c(=O)[nH]c(-c3cc(S(=O)(=O)N4CCN(CCCl)CC4)ccc3OCC)nc12 [Example 33, 5-(5-(4-(2-chloroethyl)piperazinylsulfonyl)-2-ethoxyphenyl)-1-methyl-3-n-propyl-1,6-dihydro-7H-pyrrolo[4,3-d]pyrimidin-7-one] | – | 226 °C (dec.) | 2060
2 | CCCc1cn(C)c2c(=O)[nH]c(-c3cc(S(=O)(=O)N4CCN(CCCCl)CC4)ccc3OCC)nc12 [Example 35, 5-(5-(4-(3-chloropropyl)piperazinylsulfonyl)-2-ethoxyphenyl)-1-methyl-3-n-propyl-1,6-dihydro-7H-pyrrolo[4,3-d]pyrimidin-7-one hydrochloride] | 490 | – | –
3 | CCCOc1ccc(S(=O)(=O)N2CCC(C(=O)O)CC2)cc1-c1nc2c(CCC)cn(C)c2c(=O)[nH]1 [Example 105] | 710 | 155 to 155.5 °C | –
4 | CCCOc1ccc(S(=O)(=O)N2CCN(Cc3nnn[nH]3)CC2)cc1-c1nc2c(CCC)cn(C)c2c(=O)[nH]1 [Example 117, 5-(2-n-propoxy-5-(4-(1H-tetrazol-5-ylmethyl)piperazinylsulfonyl)phenyl)-1-methyl-3-n-propyl-1,6-dihydro-7H-pyrrolo[4,3-d]pyrimidin-7-one] | 700 | 150 °C (dec.) | –

More lines, in order of falling IC50 (cGMP PDE V; [1]), values ahead:

Row | IC50 (cGMP PDE V; [1]) [pM] | melting point | SMILES | IC50 (cGMP PDE V) [pM]
5 | 640 | – | CCCc1cn(C)c2c(=O)[nH]c(-c3cc(S(=O)(=O)N4CCN(CCCF)CC4)ccc3OCC)nc12 [Example 19, 5-(2-ethoxy-5-(4-(3-fluoropropyl)piperazinylsulfonyl)phenyl)-1-methyl-3-n-propyl-1,6-dihydro-7H-pyrrolo[4,3-d]pyrimidin-7-one sulfuric acid] | –
6 | 280 | 188 °C (dec.) | CCCc1cn(C)c2c(=O)[nH]c(-c3cc(S(=O)(=O)N4CCN(Cc5nnn[nH]5)CC4)ccc3OCC)nc12 [Example 116] | –
7 | 270 | 138.5 to 139.5 °C | CCCc1cn(C)c2c(=O)[nH]c(-c3cc(S(=O)(=O)N4CCC(CC(=O)O)CC4)ccc3OCC)nc12 [Example 106, 5-(2-ethoxy-5-(4-(hydroxycarbonylmethyl)piperidinylsulfonyl)phenyl)-1-methyl-3-n-propyl-1,6-dihydro-7H-pyrrolo[4,3-d]pyrimidin-7-one] | –
